Experimental data as given in PubChem BioAssay (NCI).
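Growth conditions: 96-well plates. Treatment: test compound, 48 hours, 5 concentrations. Analysis: linear interpolation between bracketing concentrations; unreached endpoints set to highest concentration. GI50 is the concentration that inhibits growth by half. TGI: total growth inhibition.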

How the values were obtained:
Test in all cases: growth of human tumour cells (NCI), 48 h
[1] = test system: EKVX NSCLC
[2] = test system: A549 NSCLC
[3] = test system: DU-145 prostate
[4] = test system: HT29 colon
[5] = test system: NCI-H23 lung
[6] = test system: COLO 205 colon
[7] = test system: TK-10 renal
[8] = test system: HCC-2998 colon
[9] = test system: SW-620 colon
[10] = test system: NCI-H226 lung
[11] = test system: HCT-15 colon
[12] = test system: OVCAR-5 ovarian
[13] = test system: ACHN renal
[14] = test system: SNB-19 CNS
[15] = test system: SF-295 CNS
[16] = test system: MALME-3M melanoma
[17] = test system: SF-539 CNS
[18] = test system: MDA-MB-231 breast
[19] = test system: MCF7 breast
[20] = test system: IGROV1 ovarian
[21] = test system: OVCAR-4 ovarian
[22] = test system: UACC-62 melanoma
[23] = test system: A498 renal
[24] = test system: MDA-MB-435
[25] = test system: SK-OV-3 ovarian
[26] = test system: CAKI-1 renal
[27] = test system: SK-MEL-28 melanoma
[28] = test system: SF-268 CNS
[29] = test system: BT-549 breast
[30] = test system: SNB-75 CNS
[31] = test system: LOX IMVI melanoma
[32] = test system: KM12 colon
[33] = test system: HS 578T breast
[34] = test system: OVCAR-3 ovarian
[35] = test system: T-47D breast
[36] = test system: NCI/ADR-RES ovarian
[37] = test system: 786-0 renal
[38] = test system: UO-31 renal
[39] = test system: SN12C renal
[40] = test system: OVCAR-8 ovarian
[41] = test system: RXF 393 renal
[42] = test system: SR leukemia
[43] = test system: NCI-H522 lung
[44] = test system: HL-60(TB) leukemia
[45] = test system: HOP-92 NSCLC
[46] = test system: HCT-116 colon
[47] = test system: NCI-H460 lung
[48] = test system: HOP-62 NSCLC
[49] = test system: SK-MEL-5 melanoma
[50] = test system: U251 CNS
[51] = test system: M14 melanoma
[52] = test system: PC-3 prostate
[53] = test system: SK-MEL-2 melanoma
[54] = test system: MOLT-4 leukemia
[55] = test system: UACC-257 melanoma

## C#C[C@]1(O)CCC2C3CCc4cc(O)ccc4C3CC[C@@]21C (stereo not given in full)
[1]
  GI50: 1.66 µM
  TGI: > 100 µM
[2]
  GI50: 5.81 µM
  TGI: > 100 µM
[3]
  GI50: 6.71 µM
  TGI: 23.5 µM
[4]
  GI50: 3.65 µM
  TGI: 18.6 µM
[5]
  GI50: 4.7 µM
  TGI: 25.7 µM
[6]
  GI50: 3.86 µM
  TGI: 14 µM
[7]
  GI50: 10.3 µM
  TGI: > 100 µM
[8]
  GI50: 9.88 µM
  TGI: 63.5 µM
[9]
  GI50: 3.8 µM
  TGI: 23.6 µM
[10]
  GI50: 10.3 µM
  TGI: 30.8 µM
[11]
  GI50: 4.9 µM
  TGI: 73 µM
[12]
  GI50: 17.3 µM
  TGI: > 100 µM
[13]
  GI50: 9.42 µM
  TGI: 85.1 µM
[14]
  GI50: 7.59 µM
  TGI: > 100 µM
[15]
  GI50: 2.7 µM
  TGI: 12.2 µM
[16]
  GI50: 7.08 µM
  TGI: 22.4 µM
[17]
  GI50: 4 µM
  TGI: 14.7 µM
[18]
  GI50: 7.58 µM
  TGI: 47.2 µM
[19]
  GI50: 9.51 µM
  TGI: 25.2 µM
[20]
  GI50: 11.2 µM
  TGI: 52.4 µM
[21]
  GI50: 6.76 µM
  TGI: 33.6 µM
[22]
  GI50: 4.12 µM
  TGI: 22.8 µM
[23]
  GI50: 4.62 µM
  TGI: 18.3 µM
[24]
  GI50: 0.628 µM
  TGI: 9.59 µM
[25]
  GI50: 3.45 µM
  TGI: 49.6 µM
[26]
  GI50: 9.15 µM
  TGI: 87 µM
[27]
  GI50: 5.85 µM
  TGI: 19.7 µM
[28]
  GI50: 5.23 µM
  TGI: 32.7 µM
[29]
  GI50: 4.64 µM
  TGI: 18.4 µM
[30]
  GI50: 1.93 µM
  TGI: 6.76 µM
[31]
  GI50: 5.27 µM
  TGI: 18.8 µM
[32]
  GI50: 3.14 µM
  TGI: 13.9 µM
[33]
  GI50: 3.08 µM
  TGI: 17.7 µM
[34]
  GI50: 3.14 µM
  TGI: 8.43 µM
[35]
  GI50: 6.91 µM
  TGI: 24.4 µM
[36]
  GI50: 3.14 µM
  TGI: 25.4 µM
[37]
  GI50: 5.08 µM
  TGI: 21.9 µM
[38]
  GI50: 6.81 µM
  TGI: 28.8 µM
[39]
  GI50: 6.41 µM
  TGI: 37.6 µM
[40]
  GI50: 5.8 µM
  TGI: 37.2 µM
[41]
  GI50: 4.66 µM
  TGI: 17.7 µM
[42]
  GI50: 1.24 µM
  TGI: 87.4 µM
[43]
  GI50: 3.47 µM
  TGI: 20.5 µM
[44]
  GI50: 3.45 µM
  TGI: 24.2 µM
[45]
  GI50: 5.91 µM
  TGI: 19.9 µM
[46]
  GI50: 4.68 µM
  TGI: 20 µM
[47]
  GI50: 4.02 µM
  TGI: 17.8 µM
[48]
  GI50: 4.34 µM
  TGI: 16.6 µM
[49]
  GI50: 2.24 µM
  TGI: 7.6 µM
[50]
  GI50: 4.09 µM
  TGI: 17.5 µM
[51]
  GI50: 3.87 µM
  TGI: 13.5 µM
[52]
  GI50: 5.48 µM
  TGI: 42.4 µM
[53]
  GI50: 5.81 µM
  TGI: 26.8 µM
[54]
  GI50: 3.65 µM
  TGI: 26.3 µM
[55]
  GI50: 10.4 µM
  TGI: 41.4 µM
